In data set [1] the test system is human non-small cell lung cancer cell line A427. The experiment in a line: A427 tumor cell proliferation (confluence) assay, IncuCyte S3 live cell imaging.
Protocol: In particular the confluence and IC 50 values were determined.
Live Cell imaging using the IncuCyte® S3 Live Cell Analysis System
The measurement of the cell confluence and the determination of the IC50 values were
performed with the IncuCyte® S3 Live Cell Analysis System (Essen BioScience, Ltd.,
Royston, Hertfordshire, UK)
5.4. Preparation of 96-well plates
For the preparation of the 96-well plates for the Live Cell Imager, A427 cells from the flask
were detached and centrifuged. The pellet was resuspended in 20 mL of the medium
using the vortexer. 1 mL was used to determine the number of cells and the volume
required for 8,000-12,000 cells was calculated. This volume was then added to each well
Switzerland) and the well was filled up to a total volume of 150 µL with medium.
At a confluence of 30-40 % the test compounds were added. Dilutions of concentrations
of 200, 100, 40, 20, 10 and 4 µM were prepared in medium with 2 % DMSO. 50 µL of
each dilution were added to the wells, resulting in a final assay concentration of 50, 25,
10, 5, 2.5 and 1 µM, respectively. Each concentration was measured in triplicates on each
plate and on three different days.
5.5. Measurement of cell confluence
The cell confluence was measured using the IncuCyte® S3. For the scanning with the
at a 10-fold magnification. Four pictures were taken from each well every 2 h until the
growth curve of the cells reached a plateau (approx. 5 d). The mask for the analysis of
adjustment size of -1 pixel and an area filter of minimum 200 µm2. After the analysis, a
graph showing the development of the confluence over time was produced.
5.6. Competitive confluence assay
The plates were prepared as described above with the exception that the cells were grown
in 100 µL instead of 150 µL of medium. After the cell confluence reached 30-40 %, the
(final concentration: 10 µM).
Data set [2] can be described thus: logD7.4 by micro shake flask method (n-octanol / MOPS buffer pH 7.4, MS). The format is physicochemical. Particulars: read-out: logD7.4 (exp., n=3). The procedure: However, the penalty for increased hydrolytic stability and σ1 receptor affinity of tetrahydropyrans 2 and cyclohexanes 3 is an increased molecular lipophilicity. In Figure 1 the calculated clogP values of the σ1 ligands 1–3 and one designed piperidine 4 a are summarized. In order to confirm the predicted clogP values, the logD7.4 values of the σ1 ligands 1–4 a were also determined experimentally using the micro shake flask method.[39, 40]
In order to argue with reliable lipophilicity values, the logD7.4 values of key compounds were determined experimentally following our micro‐shake‐flask protocol.[39, 40] According to this method, each compound of interest was distributed between an n‐octanol layer and an aqueous MOPS buffer pH 7.4. Subsequently, the amount of compound in the buffer layer was determined by mass spectrometry.

The nature of data set [3]: water solubility. The format is physicochemical. Particulars: at higher concentrations.
In data set [4] the target is T1, σ2 receptor (Rattus norvegicus, UniProt Q5U3Y7).
T1 construct: The thawed rat liver membrane preparation; tissue Harlan-Winkelmann, Borchen, Germany; host or cells: rat liver membrane preparation
T1 sequence (Q5U3Y7 1-176): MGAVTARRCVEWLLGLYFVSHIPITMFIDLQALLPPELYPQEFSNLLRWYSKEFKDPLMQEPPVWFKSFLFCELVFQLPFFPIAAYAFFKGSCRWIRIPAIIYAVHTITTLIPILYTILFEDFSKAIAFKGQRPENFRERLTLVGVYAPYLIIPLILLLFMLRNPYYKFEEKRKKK
The experiment in a line: σ2 receptor radioligand binding assay ([3H]DTG with excess (+)-pentazocine, rat liver membranes). Particulars: for Ki: read-out: σ2 affinity K i±SEM (n=3), rat liver membranes, [3H]DTG + (+)-pentazocine; for inhibition at 1 µM: test compound concentration 1 μM.

The target of data set [5] is T2, σ1 receptor (Cavia porcellus, UniProt Q60492).
T2 construct: The thawed membrane preparation of guinea pig brain cortex; tissue Harlan-Winkelmann, Borchen, Germany; host or cells: guinea pig brain (cortex) membrane homogenate
As to the kind of experiment: σ1 receptor radioligand binding assay ([3H]-(+)-pentazocine, guinea pig brain homogenate). Particulars: for Ki: guinea pig brain, [3H]-(+)-pentazocine, piperidines tested as cis/trans mixtures; for σ1 : σ2 selectivity: Ki(σ2)/Ki(σ1).

The subject of data set [6] is androgen negative human prostate cancer cells DU145. As to the kind of experiment: DU145 cell growth inhibition, sulforhodamine B staining, 72 h. It is filed as cell-based. Particulars: 72 h incubation, n=3, read-out: cytotoxicity (DU145) IC 50. The procedure:
In the assay, DU145 tumor cells were incubated in 96‐well plates for 24 h. Different concentrations of the test compounds were added and after incubation for additional 72 h, the amount of living cells was recorded by staining with Sulforhodamine B.[62] In Table 3 the activity of the prototypical σ1 antagonists NE‐100 and S1RA is included.
6. Growth inhibition of DU145 tumor cells
DU145 cells were purchased from ATCC and maintained in adherent conditions in RPMI 1640 medium (21875-034, Gibco®) supplemented with 2 % (S)-glutamine, 10 % fetal […]
Gibco®). For the proliferation assays, DU145 cells were seeded at a density of 2 x 10^3 cells/well in 96-well tissue culture plates. 24 h later, the cells were treated with the […]
Then, the cells were fixed with 10 % (w/v) trichloroacetic acid and stained with sulforhodamine B for 30 min. The excess of the dye was removed by washing repeatedly with 1 % (v/v) acetic acid and the protein-bound dye was solubilized with Tris base solution for optical density (OD) measurement at 510 nm with a microplate reader. Cell proliferation and viability were expressed as percentages relative to those of DMSO treated cells. The data represent the results from three independent experiments. Statistical analysis was done using T-test and Anova. Figure […]
and two reference σ1 receptor antagonists.
In general terms: The SRB assay estimates cell density from bound dye.

Data set [7] has as its target σ1 receptor. The following applies: read-out: σ1 affinity K i±SEM, cited from earlier work.
Data set [8] deals with T1, σ2 receptor. Particulars: lead compounds 1–3; read-out: σ2 affinity K i±SEM; cited from earlier work.
Data set [9] deals with T2, σ1 receptor. Particulars: cited from earlier work.
Data set [10] concerns σ1 receptor. Also noted: method as in PMID 21444132, PMID 21598296. The following applies: mouse capsaicin assay; cited from earlier work.
The mark [11] stands for this setting: read-out: σ1 affinity K i±SEM (n=3).
The mark [12] stands for this setting: lead compounds 1–3 (enantiomers), read-out: σ1 affinity K i±SEM.

Read-outs that look alike come from different tables or passages of the source.

T2 sequence (Q60492 whole entry): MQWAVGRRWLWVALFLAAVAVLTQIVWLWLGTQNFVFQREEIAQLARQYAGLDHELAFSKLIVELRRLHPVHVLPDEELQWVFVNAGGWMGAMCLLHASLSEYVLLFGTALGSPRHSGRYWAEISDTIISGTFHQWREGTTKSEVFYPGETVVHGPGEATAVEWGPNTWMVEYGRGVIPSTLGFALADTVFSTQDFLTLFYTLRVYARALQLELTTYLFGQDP

Turning to `c1ccc(CNCCC2CCNC(c3ccccc3)C2)cc1` (stereo not drawn) [4a, cis‐ and trans‐N‐Benzyl‐2‐(2‐phenylpiperidin‐4‐yl)ethan‐1‐amine], the IC50 was 18000 nM in [1] (Homo sapiens, A-427, 120 h, read-out: Inhibition of cell confluency IC50 ± SD, A427 cells, last time point (approx. 5 d), n = 3) and 17000 nM in data set [1] (read-out: Inhibition of cell confluency IC50 ± SD, A427 cells, last time point (approx. 5 d), n = 3). Further, the “functional behaviour at σ1 receptor in A427 tumor cell proliferation assay” value in data set [1] (effect reduced by σ1 agonist (+)-pentazocine (10 μM)) was “σ1 receptor antagonist”. In data set [2], the logD was -0.79 ± 0.07. For the same compound, the water solubility entry in data set [3] is given as “good water solubility”. Further, the Ki in data set [4] is 372 nM; in data set [5] (setting [11]) it was 165 nM.

As for `c1ccc(CCCNCCC2CCNC(c3ccccc3)C2)cc1` (stereo not drawn) [4b, cis‐ and trans‐N‐(3‐Phenylpropyl)‐2‐(2‐phenyl‐piperidin‐ 4‐yl)ethan‐1‐amine], 1 µM produced 0% inhibition in data set [4]. Besides, the Ki in data set [5] (σ1 affinity K i±SEM (n=3)) worked out at 849 nM.

The compound `Cc1ccc(S(=O)(=O)N2CCC(CCNCc3ccccc3)CC2c2ccccc2)cc1` (stereo not drawn) [13a, cis‐ and trans‐N‐Benzyl‐2‐(2‐phenyl‐1‐tosyl‐piperidin‐ 4‐yl)ethan‐1‐amine] gave a melting point of 79 °C. In addition, in [5], the “σ1 : σ2 selectivity” value is recorded as 13. Further, the Ki in [5] (σ1 affinity K i±SEM (n=3)) worked out at 57 ± 21 nM.

As to `Cc1ccc(S(=O)(=O)N2CCC(CCNCCCc3ccccc3)CC2c2ccccc2)cc1` (stereo not drawn) [13b, cis‐ and trans‐N‐(3‐Phenylpropyl)‐2‐(2‐phenyl‐1‐tosylpiperidin‐4‐yl)ethan‐1‐amine], in [5], the “σ1 : σ2 selectivity” value was found to be 2. In addition, the Ki in data set [5] (σ1 affinity K i±SEM (n=3)) came to 291 ± 139 nM.

For the compound `CN1CCC(CCNCc2ccccc2)CC1c1ccccc1` (stereo not drawn) [18a, cis‐ and trans‐N‐Benzyl‐2‐(1‐methyl‐2‐phenyl‐piperidin‐ 4‐yl)ethan‐1‐amine], the logD in data set [2] worked out at 0.52 ± 0.01. For the same compound, the “σ1 : σ2 selectivity” value in data set [5] came out at 61. Besides, the Ki in data set [5] (setting [11]) is 7.9 ± 0.2 nM.

Regarding `CCN1CCC(CCNCc2ccccc2)CC1c1ccccc1` (stereo not drawn) [18b, cis‐ and trans‐N‐Benzyl‐2‐(1‐ethyl‐2‐phenyl‐piperidin‐ 4‐yl)ethan‐1‐amine], in [5], the “σ1 : σ2 selectivity” value turned out to be 1. In data set [5] (σ1 affinity K i±SEM (n=3)), the Ki stood at 129 ± 38 nM.

In turn, `CN1CC[C@H](CCNCCCc2ccccc2)C[C@@H]1c1ccccc1` [19a, cis‐N‐(2‐(1‐Methyl‐2‐phenylpiperidin‐4‐yl)‐ethyl)‐3‐ phenylpropan‐1‐amine] yielded an inhibition at 1 µM in data set [4] of 0%. Also, the “σ1 : σ2 selectivity” value in [5] was above 20. Moreover, the Ki in data set [5] (σ1 affinity K i±SEM (n=3)) stood at 50 ± 17 nM.

Turning to `CCN1CC[C@H](CCNCCCc2ccccc2)C[C@@H]1c1ccccc1` [19b, cis‐N‐(2‐(1‐Ethyl‐2‐phenylpiperidin‐4‐yl)ethyl)‐3‐phenylpropan‐1‐amine], the “preference for the σ2 receptor over the σ1 receptor” value in [4] came out at 7 fold. Moreover, the Ki in data set [5] (σ1 affinity K i±SEM (n=3)) was 2400 nM.

On to `CN1CCC(CCNCC2CCCCC2)CC1c1ccccc1` (stereo not drawn) [20a, cis‐ and trans‐N‐(Cyclohexylmethyl)‐2‐(1‐methyl‐ 2‐phenylpiperidin‐4‐yl)ethan‐1‐amine], for which, in [6] (Homo sapiens, DU-145), the IC50 was 4900 nM. Moreover, the “σ1 : σ2 selectivity” value in [5] was 18. The Ki in data set [5] (σ1 affinity K i±SEM (n=3)) stood at 16 ± 5 nM.

Take `CN(CCC1CCN(C)C(c2ccccc2)C1)Cc1ccccc1` (stereo not drawn) [21a, cis‐ and trans‐N‐Benzyl‐N‐methyl‐2‐(1‐methyl‐ 2‐phenylpiperidin‐4‐yl)ethan‐1‐amine]: the IC50 in [6] (Homo sapiens, DU-145) turned out to be 5500 nM. Also, the Ki in data set [4] was 77 ± 5 nM; in data set [5] (setting [11]) it was 19 ± 9 nM; in [5] (σ1 affinity K i±SEM (n=3)), below 27 nM. For the same compound, the “σ1 : σ2 selectivity” value in [5] is reported as 4.

With `CN1CCC(CCN2CCN(c3ccccc3)CC2)CC1c1ccccc1` (stereo not drawn) [22a, cis‐ and trans‐1‐(2‐(1‐Methyl‐2‐phenyl‐ piperidin‐4‐yl)ethyl)‐4‐phenylpiperazine], in data set [6] (Homo sapiens, DU-145), the IC50 was found to be 4000 nM. The Ki in data set [4] is 1600 nM; in [5] (setting [11]), 27 ± 11 nM; in [5] (σ1 affinity K i±SEM (n=3)), below 27 nM. Moreover, in data set [5], the “σ1 : σ2 selectivity” value is 59.

For `CC(C)=CCN1CC[C@]2(C)c3cc(O)ccc3C[C@H]1[C@H]2C` [(+)‐pentazocine, reference compound], the “Inhibition of cell confluency IC50 ± SD” value in data set [1] (A427 cells, last time point (approx. 5 d), n = 3) is listed as “no effect”.

In the case of `CCCN(CCC)CCc1ccc(OC)c(OCCc2ccccc2)c1` [NE‐100, reference compound], the IC50 in data set [6] was above 10000 nM. In addition, the Ki in [7] (NE-100) was 1.3 nM.

For `Cc1cc(OCCN2CCOCC2)nn1-c1ccc2ccccc2c1` [S1RA, reference compound], the IC50 in data set [6] was above 10000 nM. Further, the Ki in data set [7] (S1RA) is 17 ± 7 nM.

As for `c1ccc(CNCCC2CCOC(c3ccccc3)O2)cc1` (stereo not drawn) [compound 1], the Ki in data set [8] is 4200 nM; in data set [9] (1,3-dioxane 1, read-out: σ1 affinity K i) it was 19 nM; in data set [9] (setting [12]) it was 6 ± 1 nM. The logD in data set [2] was 1.36 ± 0.02. Further, in data set [10], the “antiallodynic activity in vivo” value was “high antiallodynic activity”.

Turning to `c1ccc(CNCCC2CCCC(c3ccccc3)O2)cc1` (stereo not drawn) [compound 2], the Ki was 378 nM in [8] and 1.6 ± 0.2 nM in [9] (setting [12]). Also, the logD in data set [2] amounted to 2.52 ± 0.05.

Take `c1ccc(CNCCC2CCCC(c3ccccc3)C2)cc1` (stereo not drawn) [compound 3]: the Ki in [8] is 49 ± 31 nM; in data set [9] (setting [12]) it was 0.61 ± 0.1 nM. For the same compound, the “σ1 : σ2 selectivity” value in [9] (lead compounds 1–3) is listed as 80. The logD in data set [2] is 3.25 ± 0.02.

A word on the inhibition: it is the change of the read-out against control, counted positive when it falls. Usually melting point stands for the temperature of the solid-liquid transition.
